A value given as a limit tells only on which side of the number the result lay.

The target of this assay is T1, GLP-1R (Homo sapiens, UniProt P43220).
T1 construct: host or cells: CRE-bla CHO-K1
T1 sequence (P43220 24-463): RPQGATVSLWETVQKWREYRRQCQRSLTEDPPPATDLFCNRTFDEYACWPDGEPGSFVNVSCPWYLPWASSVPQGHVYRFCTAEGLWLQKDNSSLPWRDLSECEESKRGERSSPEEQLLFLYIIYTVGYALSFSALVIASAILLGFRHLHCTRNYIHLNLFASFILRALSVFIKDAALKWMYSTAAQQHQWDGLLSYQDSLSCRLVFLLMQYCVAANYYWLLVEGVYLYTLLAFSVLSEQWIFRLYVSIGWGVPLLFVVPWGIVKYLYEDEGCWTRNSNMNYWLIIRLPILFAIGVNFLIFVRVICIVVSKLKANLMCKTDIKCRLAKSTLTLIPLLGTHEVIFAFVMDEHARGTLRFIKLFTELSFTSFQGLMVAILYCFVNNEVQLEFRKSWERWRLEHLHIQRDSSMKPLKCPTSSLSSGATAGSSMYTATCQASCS
T1 sequence (P01275 100-127 partner limits assumed): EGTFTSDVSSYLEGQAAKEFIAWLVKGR
The assay can be described thus: EC20 GLP-1(9-36) PAM cAMP Assay: dose response of compound in the presence of fixed concentration of GLP-1(9-36). The assay is classed as cell-based. To be noted: GLP-1R CRE-bla CHO-K1 cells, in presence of fixed concentration of GLP-1(9-36), 30 min at 37° C. The method, then: EC20 GLP-1(9-36) PAM cAMP Assay: Dose Response of Compound in the Presence of Fixed Concentration of GLP-1 (9-36).
GLP-1R CRE-bla CHO-K1 cells cultured in growth medium (DMEM-High glucose, 10% dialyzed FBS, 0.1 mM NEAA, 25 mM Hepes, 100 U/mL penicillin/100 μg/mL streptomycin, 5 μg/mL Blasticidin, 600 μg/mL Hygromycin) were trypsinized and plated in suspension into 384 well white flat bottom plates at 5000 cells/well in 12 μL assay buffer (Hanks Balanced Salt solution, 10 mM Hepes, 0.1% BSA, 10 pH 7.4). A 5× compound dose response curve (12-point) was generated in assay buffer containing 1.5 mM IBMX, 4% DMSO. GLP-1(9-36) was diluted to 4.2 μM in assay buffer containing 1.5 mM IBMX and 4% DMSO. The 5× compound dose response was added (3 μL), followed by 0.5 μL of GLP-1(9-36) and cells were incubated for 30 min at 37° C. Direct detection of cAMP was carried out using DiscoveRx HitHunter cAMP kit according to manufacturer's instructions and luminescence was read using a SpectraMax M5 plate reader. Luminescence was converted to total cAMP using a cAMP standard curve and data was analyzed by non-linear regression to determine the EC50 and Emax.
Usually EC50 stands for the concentration that produces a half-maximal response. Regarding `CCCC1CCC(C2CCC(c3cnc(-c4ccc(C[C@H](NC(=O)c5ccc(C(C)C)s5)C(=O)N5CC(C(=O)O)C5)cc4)nc3)CC2)CC1` (stereo partly drawn) [Compound 16], the EC50 lay in the range of 500 to 2500 nM. Take `CCCC1CCC(C2CC=C(c3cnc(-c4ccc(C[C@H](NC(=O)c5ccc(CC)s5)C(=O)N5CC(C(=O)O)C5)cc4)nc3)CC2)CC1` (stereo partly drawn) [Compound 31, 1-((S)-2-(5-ethylthiophene-2-carboxamido)-3-(4-(5-((1RS,1′s,4′RS)-4′-propyl-[1,1′-bi(cyclohexan)]-3-en-4-yl)pyrimidin-2-yl)phenyl)propanoyl)azetidine-3-carboxylic acid]: the 50% effective concentration (EC50) is less than 500 nM. On to `C[C@@H](NC(=O)[C@H](Cc1ccc(-c2ncc(C3=CC4CC[C@]3(C)C4(C)C)cn2)cc1)NC(=O)c1ccc(C(C)(C)C)s1)C(=O)O` [Compound 58], for which the EC50 lay within 2500 to 5000 nM. For the compound `CC[C@H]1CC[C@H](C2CC=C(c3cnc(-c4ccc(C[C@H](NC(=O)c5ccc(C(F)(F)F)cc5)C(=O)N5CC(C(=O)O)C5)cc4)nc3)CC2)CC1` (stereo partly drawn) [Compound 100], the concentration giving a half-maximal response (EC50) is less than 500 nM. With `CC(C)(C)c1ccc(C(=O)N[C@@H](Cc2ccc(-c3ncc(C4=CCC([C@H]5CC[C@H](C)CC5)CC4)cn3)cc2)C(=O)NS(C)(=O)=O)s1` (stereo partly drawn) [Compound 115], the EC50 was less than 500 nM.

In the case of `CCCC1CCC(C2CC=C(c3cnc(-c4ccc(C[C@H](NC(=O)c5cnn(C(C)(C)C)c5)C(=O)N5CC(C(=O)O)C5)cc4)nc3)CC2)CC1` (stereo partly drawn) [Compound 19], the EC50 lay within 500 to 2500 nM. Next, `CCCC1CCC(C2CC=C(c3cnc(-c4ccc(C[C@H](NC(=O)c5cnc(C(C)(C)C)nc5)C(=O)N5CC(C(=O)O)C5)cc4)nc3)CC2)CC1` (stereo partly drawn) [Compound 15]: less than 500 nM; `CC[C@H]1CC[C@H](C2CC=C(c3cnc(-c4ccc(C[C@H](NC(=O)c5ccc(CC(C)C)s5)C(=O)N5CC(C(=O)O)C5)cc4)nc3)CC2)CC1` (stereo partly drawn) [Compound 96]: less than 500 nM. Take `CCC1CC=C(c2cnc(-c3ccc(C[C@H](NC(=O)c4ccc(C(C)(C)C)s4)C(=O)N[C@H](C)C(=O)O)cc3)nc2)CC1` (stereo partly drawn) [Compound 51]: the concentration for a half-maximal effect (EC50) is 500 to 2500 nM. The figure for `CC1CC=C(c2cnc(-c3ccc(C[C@H](NC(=O)c4ccc(C(C)(C)C)s4)C(=O)N[C@H](C)C(=O)O)cc3)nc2)CC1` (stereo partly drawn) [Compound 55] is 2500 to 5000 nM. For the compound `CCCCCC1CCC(C2CC=C(c3cnc(-c4ccc(C[C@H](NC(=O)c5ccc(C(C)(C)C)s5)C(=O)N5CC[C@H](C(=O)O)C5)cc4)nc3)CC2)CC1` (stereo partly drawn) [Compound 3], the concentration giving a half-maximal response (EC50) was less than 500 nM. Regarding `CCCC1CC=C(c2cnc(-c3ccc(C[C@H](NC(=O)c4ccc(C(C)(C)C)s4)C(=O)N4CC(C(=O)O)C4)cc3)nc2)CC1` (stereo partly drawn) [Compound 39], the EC50 lay within 500 to 2500 nM. As to `C[C@@H](NC(=O)[C@H](Cc1ccc(-c2ncc(C3=CCC(C(C)(C)C)CC3)cn2)cc1)NC(=O)c1ccc(C(C)(C)C)s1)C(=O)O` (stereo partly drawn) [Compound 56], the concentration for a half-maximal effect (EC50) was less than 500 nM. In the case of `CC(C)(C)c1ccc(C(=O)N[C@@H](Cc2ccc(-c3ncc(C4=CCC(C(C)(C)C)CC4)cn3)cc2)C(=O)N2CC(C(=O)O)C2)s1` (stereo partly drawn) [Compound 36], the concentration for a half-maximal effect (EC50) is less than 500 nM. On to `CCCC1CCC(C2CC=C(c3cnc(-c4ccc(C[C@H](NC(=O)c5ccc(C(C)C)cc5)C(=O)N5CC(C(=O)O)C5)cc4)nc3)CC2)CC1` (stereo partly drawn) [Compound 13], for which the concentration giving a half-maximal response (EC50) was less than 500 nM. Next, `CC(C)(C)c1ccc(C(=O)N[C@@H](Cc2ccc(-c3ncc(C4=CCC([C@H]5CC[C@H](C)CC5)CC4)cn3)cc2)C(=O)N2CC(C(=O)O)C2)s1` (mixture of isomers) [Compound 44, 1-((S)-2-(5-(tert-butyl)thiophene-2-carboxamido)-3-(4-(5-((1RS,1′r,4′RS)-4′-methyl-[1,1′-bi(cyclohexan)]-3-en-4-yl)pyrimidin-2-yl)phenyl)propanoyl)azetidine-3-carboxylic acid]: less than 500 nM. The figure for `CCCCC1CC=C(c2cnc(-c3ccc(C[C@H](NC(=O)c4ccc(C(C)(C)C)s4)C(=O)N4CC(C(=O)O)C4)cc3)nc2)CC1` (stereo partly drawn) [Compound 45] is 500 to 2500 nM. Regarding `C[C@@H](NC(=O)[C@H](Cc1ccc(-c2ncc(C3=Cc4ccccc4C3)cn2)cc1)NC(=O)c1ccc(C(C)(C)C)s1)C(=O)O` [Compound 50], the concentration for a half-maximal effect (EC50) was in the range of 500 to 2500 nM.

Consider `CC[C@H]1CC[C@H](C2CC=C(c3cnc(-c4ccc(C[C@H](NC(=O)c5ccc(CC(C)C)cc5)C(=O)N5CC(C(=O)O)C5)cc4)nc3)CC2)CC1` (stereo partly drawn) [Compound 102], for which the concentration for a half-maximal effect (EC50) was 500 to 2500 nM. The figure for `C[C@@H](NC(=O)[C@H](Cc1ccc(-c2ncc(C3=CCC(C(F)(F)F)CC3)cn2)cc1)NC(=O)c1ccc(C(C)(C)C)s1)C(=O)O` (stereo partly drawn) [Compound 65] is 500 to 2500 nM; for `C[C@@H](NC(=O)[C@H](Cc1ccc(-c2ncc(C3=CCCC(NC(=O)OC(C)(C)C)C3)cn2)cc1)NC(=O)c1ccc(C(C)(C)C)s1)C(=O)O` (stereo partly drawn) [Compound 69] it is 2500 to 5000 nM. In the case of `CC[C@H]1CC[C@H](C2CC=C(c3cnc(-c4ccc(C[C@H](NC(=O)c5ccc(C(C)(C)C)s5)C(=O)NCC5CCNC5)cc4)nc3)CC2)CC1` (stereo partly drawn) [Compound 108], the EC50 was 500 to 2500 nM.

For `C[C@@H](NC(=O)[C@H](Cc1ccc(-c2ncc(C3=CCC([C@H]4CC[C@H](C)CC4)CC3)cn2)cc1)NC(=O)c1ccc(C(C)(C)C)s1)C(=O)O` (stereo partly drawn) [Compound 112], the concentration giving a half-maximal response (EC50) is less than 500 nM. The figure for `CCCC1CCC(C2CC=C(c3cnc(-c4ccc(C[C@H](NC(=O)c5ccc(C6(C)CC6)cc5)C(=O)N5CC(C(=O)O)C5)cc4)nc3)CC2)CC1` (stereo partly drawn) [Compound 26] is less than 500 nM; for `C[C@@H](NC(=O)[C@H](Cc1ccc(-c2ncc(C3=CC(=O)CC(c4ccccc4)C3)cn2)cc1)NC(=O)c1ccc(C(C)(C)C)s1)C(=O)O` (stereo partly drawn) [Compound 49] it is 5000 to 10000 nM; for `C[C@@H](NC(=O)[C@H](Cc1ccc(-c2ncc(C3=CCCC3)cn2)cc1)NC(=O)c1ccc(C(C)(C)C)s1)C(=O)O` [Compound 63] it is 500 to 2500 nM. Next, `CC(C)C1CC=C(c2cnc(-c3ccc(C[C@H](NC(=O)c4ccc(C(C)(C)C)s4)C(=O)N4CC(C(=O)O)C4)cc3)nc2)CC1` (stereo partly drawn) [Compound 40]: 500 to 2500 nM; `CC[C@H]1CC[C@H](C2CCC(c3cnc(-c4ccc(C[C@H](NC(=O)c5ccc(C(C)(C)C)s5)C(=O)N5CC(C(=O)O)C5)cc4)nc3)CC2)CC1` (stereo partly drawn) [Compound 125]: 500 to 2500 nM.

For `CCCc1ccc(C(=O)N[C@@H](Cc2ccc(-c3ncc(C4=CCC(C5CCC(CCC)CC5)CC4)cn3)cc2)C(=O)N2CC(C(=O)O)C2)cc1` (stereo partly drawn) [Compound 22], the 50% effective concentration (EC50) is less than 500 nM. Next, `CCCC1CCC(C2CC=C(c3cnc(-c4ccc(C[C@H](NC(=O)c5ccc(C(C)(C)C)s5)C(=O)N5CCC[C@H]5C(=O)O)cc4)nc3)CC2)CC1` (stereo partly drawn) [Compound 8]: less than 500 nM.

Take `CCC[C@H]1CC[C@H](C2CC=C(c3cnc(-c4ccc(C[C@H](NC(=O)c5ccc(C(C)(C)C)cc5)C(=O)N5CC(C(=O)O)C5)cc4)nc3)CC2)CC1` (mixture of isomers) [Compound 14, 1-((S)-2-(4-(tert-butyl)benzamido)-3-(4-(5-((1RS,1′s,4′RS)-4′-propyl-[1,1′-bi(cyclohexan)]-3-en-4-yl)pyrimidin-2-yl)phenyl)propanoyl)azetidine-3-carboxylic acid]: the EC50 is less than 500 nM.

Consider `CC(C)(C)c1ccc(C(=O)N[C@@H](Cc2ccc(-c3ncc(C4=CCC([C@H]5CC[C@H](C)CC5)CC4)cn3)cc2)C(=O)NCCC(=O)O)s1` (stereo partly drawn) [Compound 113], for which the EC50 is less than 500 nM.

`CCCC1CCC(C2CC=C(c3cnc(-c4ccc(C[C@H](NC(=O)c5ccc(C(C)(C)C)s5)C(=O)N[C@H](C(=O)O)[C@@H](C)O)cc4)nc3)CC2)CC1` (stereo partly drawn) [Compound 74]: the 50% effective concentration (EC50) is less than 500 nM. `CC(C)(C)c1ccc(C(=O)N[C@@H](Cc2ccc(-c3ncc(C4=CCC([C@H]5CC[C@H](C)CC5)CC4)cn3)cc2)C(=O)N2CC[C@H](C(=O)O)C2)s1` (stereo partly drawn) [Compound 116]: the EC50 was less than 500 nM. Take `CC(C)CC1CCC(C2CC=C(c3cnc(-c4ccc(C[C@H](NC(=O)c5ccc(C(C)(C)C)s5)C(=O)N5CC(C(=O)O)C5)cc4)nc3)CC2)CC1` (stereo partly drawn) [Compound 86]: the half-maximal effective concentration (EC50) is less than 500 nM. On to `CC[C@H]1CC[C@H](C2CC=C(c3cnc(-c4ccc(C[C@H](NC(=O)c5ccc(C(C)(C)C)s5)C(=O)NS(C)(=O)=O)cc4)nc3)CC2)CC1` (mixture of isomers) [Compound 109, 5-(tert-butyl)-N—((S)-3-(4-(5-((1RS,1′r,4′RS)-4′-ethyl-[1,1′-bi(cyclohexan)]-3-en-4-yl)pyrimidin-2-yl)phenyl)-1-(methylsulfonamido)-1-oxopropan-2-yl)thiophene-2-carboxamide], for which the concentration giving a half-maximal response (EC50) is less than 500 nM. Take `CCc1ccc(C(=O)N[C@@H](Cc2ccc(-c3ncc(C4=CCC(C5CCC(C)(C)CC5)CC4)cn3)cc2)C(=O)N2CC(C(=O)O)C2)s1` (stereo partly drawn) [Compound 92]: the EC50 was less than 500 nM.

For the compound `COC(=O)C1CC=C(c2cnc(-c3ccc(C[C@H](NC(=O)c4ccc(C(C)(C)C)s4)C(=O)N[C@H](C)C(=O)O)cc3)nc2)CC1` (stereo partly drawn) [Compound 62], the EC50 is less than 500 nM. `COC1CCC(C2CC=C(c3cnc(-c4ccc(C[C@H](NC(=O)c5ccc(C(C)(C)C)s5)C(=O)N5CC(C(=O)O)C5)cc4)nc3)CC2)CC1` (stereo partly drawn) [Compound 48]: the EC50 is 500 to 2500 nM.

(Values after patent US9474755B2, “GLP-1 receptor modulators” (Receptos, Inc., priority 2014, dated 2016).)
